Where a name gives a salt, the structure may show the parent alone.
Experiments:
[1] = target: human TRPV1 (Homo sapiens, UniProt Q8NER1); assay: FLIPR Ca2+ assay, reduction of L-Menthol activation of TRPV1; settings: for Average Ca2+ Counts / % Reduction of L-Menthol TRPV1 Activation: antagonist 100 μM against 1 mM L-Menthol; for inhibition at 100 µM: read-out: % Reduction of L-Menthol TRPV1 Activation
Protocol: To determine whether TRPV1 was activated, the intracellular calcium ion (Ca^+2) levels from cells transfected with the TRPV1 receptor gene was measured. HEK-239 cells stably transfected with human TRPV1 were grown in 15 ml growth medium [high glucose DMEM (Dulbecco's Modification of Eagle's Medium) supplemented with 10% FBS (fetal bovine serum), 100 g/ml Penicillin/streptomycin, 100 g/ml G418] in a 75 Cm2 flask for 3 days at 33° C. in a mammalian cell culture incubator set at 5% CO2. Cells were detached with addition of 10 ml of PBS (phosphate buffered saline) by hand shaking gently. Cells were transferred to a 50 ml tube and centrifuged at 850 rpm for 3 minutes to remove PBS. After centrifugation, a pellet of cells formed in the bottom of the tube separating them from the supernatant solution. The supernatant was discarded and the cell pellet suspended in 1 ml of fresh growth medium to which 5 μl (12.5 g) of Fluo-4 AM (Molecular Probes, Inc., Eugene, Oreg.) calcium indicator was added and incubated for 30 minutes with gentle shaking.
The pelleted cells were re-suspended in 10 ml assay buffer and 90 μl aliquots (˜50,000 cells) per well delivered to a 96-well assay plate containing 10 μl of test compounds (1 mM in assay buffer, final concentration 100 μM) or buffer control and incubated at room temperature for 30 minutes. After 30 minutes, the plate was placed into a fluorometric imaging plate reader (FLIPR384 from Molecular Devices) and basal fluorescence recorded (excitation wave length 488 nm and emission wave length 510 nm). Then 20 μl of the compound being tested as a TRPV1 receptor activator was added and fluorescence recorded. […] It may be no difference (no effect), or negative (means antagonist or desensitizer) or positive (enhancer, also known as positive allosteric modulator). […] To determine if a compound was an antagonist or a desensitizer, the direct effect of a test compound was determined. For determining the direct effect of test compounds on TRPV1, 100 μl aliquots (˜50,000 cells) of cells prepared as described above were delivered to a 96-well assay plate and basal fluorescence recorded as noted above. Then 20 μl of the compound being tested as a TRPV1 receptor activator was added and fluorescence recorded. If any increase in fluorescence over background was noted, then the compound was considered an agonist. The agonist activity was expressed relative to that observed with a benchmark agonist such as 350 nM Capsaicin for TRPV1.
100 μM of antagonist was tested against 1 mM of L-Menthol to determine the level of reduced TRPV1 receptor activation by L-Menthol. Each antagonist compound was run with 1 mM of L-Menthol as a control and the antagonist activity of each compound was determined by comparing the Ca^2+ levels of the control with the antagonist compound being tested.

[2] = target: T1, human TRPA1 (Homo sapiens, UniProt O75762); assay: FLIPR Ca2+ assay, reduction of L-Menthol activation of TRPA1; settings: 100 μM antagonist vs 1 mM L-Menthol
Protocol: In order to determine whether TRPA1 is activated, the intracellular calcium ion (Ca^2+) level from transfected cells with the TRPA1 receptor gene was measured. HEK-2 cells stably transfected with human TRPA1 were grown in 15 ml growth medium [high glucose DMEM (Dulbecco's Modification of Eagle's Medium) supplemented with 10% FBS (fetal bovine serum), 100 μg/ml Penicillin/streptomycin, 100 μg/ml G418] in a 75 Cm^2 flask for 3 days at 37° C. in a mammalian cell culture incubator set at 5% CO2. Cells were detached with addition of 10 ml of PBS (phosphate buffered saline) by hand shaking gently and transferred to a 50 ml tube and centrifuged at 850 rpm for 3 minutes to remove PBS. After centrifugation, a pellet of cells was formed in the bottom of the tube separating them from the supernatant solution. […] Fluo-4 is a fluorescent dye used for quantifying cellular Ca^2+ concentrations in the 100 nM to 1 μM range.
The pelleted cells were re-suspended in 10 ml assay buffer and 90 μl aliquots (˜50,000 cells) per well delivered to a 96-well assay plate containing 10 μl of test compounds (1 mM in assay buffer, final concentration 100 μM) or buffer control and incubated at room temperature for 30 minutes. After 30 minutes, the plate was placed into a fluorometric imaging plate reader (FLIPR384 from Molecular Devices) and basal fluorescence recorded (excitation wave length 488 nm and emission wave length 510 nm). Then 20 μl of the molecule being tested as a TRPA1 antagonist was added and fluorescence recorded. For determining the direct effect of test compounds on TRPA1, fluorescence was measured immediately after addition of each compound.
To determine if a compound was an antagonist or a desensitizer the direct effect of a test compound was determined. For determining the direct effect of test compounds on TRPA1 receptor activation, 100 μl aliquots (˜50,000 cells) of cells prepared as described above were delivered to a 96-well assay plate and basal fluorescence recorded as noted above. Then 20 μl of the compound being tested as a TRPA1 activator was added and fluorescence recorded. If any increase in fluorescence over background was noted, then the compound was considered an agonist.

[3] = target: T1, human TRPA1; assay: FLIPR Ca2+ assay, reduction of hydrogen peroxide activation of TRPA1; format: cell-based; parameters: expressed in transfected cells
Protocol: After centrifugation, a pellet of cells was formed in the bottom of the tube separating them from the supernatant solution.
The pelleted cells were re-suspended in 10 ml assay buffer and 90 μl aliquots (˜50,000 cells) per well delivered to a 96-well assay plate containing 10 μl of test compounds ([…]) or buffer control and incubated at room temperature for 30 minutes.

T1 sequence (O75762 whole entry): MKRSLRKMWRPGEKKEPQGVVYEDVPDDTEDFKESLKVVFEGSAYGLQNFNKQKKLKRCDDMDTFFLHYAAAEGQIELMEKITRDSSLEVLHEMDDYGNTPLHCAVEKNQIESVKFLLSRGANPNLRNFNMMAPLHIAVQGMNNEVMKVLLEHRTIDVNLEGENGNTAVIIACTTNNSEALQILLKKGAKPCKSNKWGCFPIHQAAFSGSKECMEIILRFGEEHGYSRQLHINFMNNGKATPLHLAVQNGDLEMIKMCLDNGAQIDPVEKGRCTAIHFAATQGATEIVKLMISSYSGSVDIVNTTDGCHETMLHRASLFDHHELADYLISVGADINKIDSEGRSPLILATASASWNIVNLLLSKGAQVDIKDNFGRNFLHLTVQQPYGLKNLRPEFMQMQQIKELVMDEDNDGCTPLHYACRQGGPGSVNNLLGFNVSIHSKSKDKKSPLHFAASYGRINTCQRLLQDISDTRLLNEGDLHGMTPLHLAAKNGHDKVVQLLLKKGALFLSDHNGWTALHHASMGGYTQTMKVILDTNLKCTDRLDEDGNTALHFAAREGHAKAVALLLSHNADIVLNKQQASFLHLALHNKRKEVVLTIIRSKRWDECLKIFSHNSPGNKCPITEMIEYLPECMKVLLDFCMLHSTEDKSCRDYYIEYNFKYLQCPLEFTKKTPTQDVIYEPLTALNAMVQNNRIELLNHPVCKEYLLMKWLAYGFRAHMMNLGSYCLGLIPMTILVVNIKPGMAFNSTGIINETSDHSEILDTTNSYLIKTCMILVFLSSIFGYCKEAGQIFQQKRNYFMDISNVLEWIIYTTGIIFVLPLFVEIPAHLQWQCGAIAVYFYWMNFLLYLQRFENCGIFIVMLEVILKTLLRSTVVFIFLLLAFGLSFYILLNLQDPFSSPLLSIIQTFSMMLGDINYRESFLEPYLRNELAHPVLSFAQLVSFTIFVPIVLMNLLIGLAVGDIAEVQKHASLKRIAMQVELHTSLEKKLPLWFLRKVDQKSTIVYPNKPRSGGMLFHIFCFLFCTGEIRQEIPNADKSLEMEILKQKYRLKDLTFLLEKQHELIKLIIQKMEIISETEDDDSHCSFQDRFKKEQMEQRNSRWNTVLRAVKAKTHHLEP
Sequence of human TRPV1 (Q8NER1 whole entry): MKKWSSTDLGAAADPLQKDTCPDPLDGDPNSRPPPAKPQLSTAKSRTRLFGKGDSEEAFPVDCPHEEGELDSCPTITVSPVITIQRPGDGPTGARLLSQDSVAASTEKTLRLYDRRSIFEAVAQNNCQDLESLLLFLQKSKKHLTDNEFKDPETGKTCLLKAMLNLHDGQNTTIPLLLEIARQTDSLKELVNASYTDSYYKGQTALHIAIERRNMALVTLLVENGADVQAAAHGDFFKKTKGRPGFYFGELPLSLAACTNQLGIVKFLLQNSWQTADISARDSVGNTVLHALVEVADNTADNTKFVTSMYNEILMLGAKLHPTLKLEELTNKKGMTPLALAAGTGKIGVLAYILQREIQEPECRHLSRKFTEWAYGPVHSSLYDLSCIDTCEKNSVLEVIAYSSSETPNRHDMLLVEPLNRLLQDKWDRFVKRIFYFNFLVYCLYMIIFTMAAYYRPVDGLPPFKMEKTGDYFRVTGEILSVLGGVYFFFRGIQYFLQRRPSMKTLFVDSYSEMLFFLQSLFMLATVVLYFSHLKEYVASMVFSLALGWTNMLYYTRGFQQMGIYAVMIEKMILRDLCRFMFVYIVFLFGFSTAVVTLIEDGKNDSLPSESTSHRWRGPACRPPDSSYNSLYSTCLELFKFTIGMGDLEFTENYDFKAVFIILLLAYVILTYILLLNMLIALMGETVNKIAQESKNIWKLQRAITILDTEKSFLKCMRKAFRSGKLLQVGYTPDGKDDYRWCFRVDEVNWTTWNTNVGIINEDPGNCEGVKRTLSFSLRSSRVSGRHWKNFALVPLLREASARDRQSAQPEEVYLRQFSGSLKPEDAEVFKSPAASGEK

| Compound | Average Ca2+ Counts [1] [Counts] | inhibition at 100 µM [1] [%] | Block of L-Menthol activation of TRPA1 [2] | Block of hydrogen peroxide activation of TRPA1 ([3]; 100 μM antagonist vs 500 μM hydrogen peroxide) | Average Ca++ Counts ([3]; compound 100 μM against 200 μM hydrogen peroxide, Sets 1-4) [Counts] | inhibition at 100 µM ([3]; compound 100 μM against 200 μM hydrogen peroxide, Sets 1-4, read-out: % Reduction of Hydrogen Peroxide TRPA1 Activation) [%] | % Reduction of L-Menthol TRPV1 Activation [1] [%] |
| --- | --- | --- | --- | --- | --- | --- | --- |
| COc1cc(/C=C/C(=O)O)ccc1O [ferulic acid] | 1242.0 | 34.5 | BLOCK ONLY MENTHOL/TRPA1 |  |  |  |  |
| CCCCCCCCCCCCCCCCOC(=O)C(C)O (stereo not drawn) [hexadecyl lactate] | 1047.0 | 43.5 | BLOCK ONLY MENTHOL/TRPA1 |  |  |  |  |
| CCCOC(=O)CCCCC(=O)OCCC [hexanedioic acid, dipropyl ester] | 2964.0 | 26.6 | BLOCK ONLY MENTHOL/TRPA1 |  |  |  |  |
| CCCCCC(=O)OCC(C)C [isobutyl hexanoate] | 3443.5 | 25.8 | BLOCK ONLY MENTHOL/TRPA1 |  |  |  |  |
| CC(C)CCOC=O [isopentyl formate] | 1451.7 | 24.8 | BLOCK ONLY MENTHOL/TRPA1 |  |  |  |  |
| C/C=C(\C)C(=O)OC(C)C [isopropyl tiglate] | 4497.5 | 29.7 | BLOCK ONLY MENTHOL/TRPA1 |  |  |  |  |
| COC(=O)c1ccccc1NC(C)=O [methyl 2-(acetylamino)benzoate] | 1178.3 | 37.4 | BLOCK ONLY MENTHOL/TRPA1 |  |  |  |  |
| CCCC(C)C(=O)OC (stereo not drawn) [methyl 2-methylpentanoate] | 1529.3 | 21.2 | BLOCK ONLY MENTHOL/TRPA1 |  |  |  |  |
| COC(=O)CCSC [methyl 3-(methylthio)propionate] | 998.7 | 45.7 | BLOCK ONLY MENTHOL/TRPA1 |  |  |  |  |
| CCCCCCCCSC [methyl n-octyl sulfide] | 1120.3 | 40.1 | BLOCK ONLY MENTHOL/TRPA1 |  |  |  |  |
| COC(=O)c1cccnc1 [methyl nicotinate] | 1483.7 | 23.3 | BLOCK ONLY MENTHOL/TRPA1 |  |  |  |  |
| COc1ccccc1C [o-methylanisole] | 1107.3 | 40.7 | BLOCK ONLY MENTHOL/TRPA1 |  |  |  |  |
| CCCCCCCC=O [octanal] | 2759.0 | 31.6 | BLOCK ONLY MENTHOL/TRPA1 |  |  |  |  |
| C1CNCCN1 [piperazine] | 3405.0 | 46.8 | BLOCK BOTH MENTHOL AND H2O2 ON TRPA1 | BLOCK BOTH MENTHOL AND H2O2 ON TRPA1 | 2815.5 | 60 |  |
| CCC/C=C/COC(=O)CC [propionic acid trans-2-hexen-1-yl ester] | 1128.3 | 39.7 | BLOCK ONLY MENTHOL/TRPA1 |  |  |  |  |
| CCCOC(=O)C(C)=O [propyl pyruvate] | 2386.5 | 40.9 | BLOCK ONLY MENTHOL/TRPA1 |  |  |  |  |
| CC(=O)C=O [pyruvic aldehyde] | 1504.0 |  | BLOCK ONLY MENTHOL/TRPA1 |  |  |  | 22.3 |
| C=C[C@H]1C[N@@]2CC[C@H]1C[C@H]2[C@H](O)c1ccnc2ccc(OC)cc12 [quinine hydrochloride dihydrate] | 1505.3 | 22.3 | BLOCK ONLY MENTHOL/TRPA1 |  |  |  |  |
| CCC(C)SSC(C)CC (stereo not drawn) [sec-butyl disulfide] | 3652.0 | 21.3 | BLOCK ONLY MENTHOL/TRPA1 |  |  |  |  |
| CC(=O)OCC1CCCO1 (stereo not drawn) [tetrahydrofurfuryl acetate] | 1269.3 | 33.2 | BLOCK ONLY MENTHOL/TRPA1 |  |  |  |  |
| CCC/C=C/COC(C)=O [trans-2-hexenyl acetate] | 1119.0 | 40.2 | BLOCK ONLY MENTHOL/TRPA1 |  |  |  |  |
| iron naphthenate | 2748.5 |  | BLOCK ONLY MENTHOL/TRPA1 |  |  |  | 31.9 |
